Source: patent US7141592B2, “Substituted oxadiazolidinediones” (Wyeth, priority 2003, dated 2006)

Tests used:
human PAI-1 = human PAI-1 (Homo sapiens, UniProt P05121); experiment: Assay for determining IC50 of inhibition of PAI-1 (active PAI-1 bound to tPA-coated plate, 33B8 antibody detection); type: biochemical; settings: values carry suffix (K), not defined in the patent
Experimental: This assay is based upon the non-SDS dissociable interaction between tPA and active PAI-1. Assay plates are initially coated with human tPA (10 μg/ml). Substituted oxadiazolidinediones of the present invention are dissolved in DMSO at 10 mM, then diluted with physiologic buffer (pH 7.5) to a final concentration of 1–50 μM. Test compounds are incubated with human PAI-1 (50 ng/ml) for 15 minutes at room temperature. The tPA-coated plate is washed with a solution of 0.05% Tween 20 and 0.1% BSA, then the plate is blocked with a solution of 3% BSA. An aliquot of the substituted oxadiazolidinedione/PAI-1 solution is then added to the tPA-coated plate, incubated at room temperature for 1 hour, and washed. Active PAI-1 bound to the plate is assessed by adding an aliquot of a 1:1000 dilution of the 33B8 monoclonal antibody against human PAI-1, and incubating the plate at room temperature for 1 hour (Molecular Innovations, Royal Oak, Mich.). The plate is again washed, and a solution of goat anti-mouse IgG-alkaline phosphatase conjugate is added at a 1:50,000 dilution in goat serum. The plate is incubated 30 minutes at room temperature, washed, and a solution of alkaline phosphatase substrate is added. The plate is incubated 45 minutes at room temperature, and color development is determined at OD405nm. The quantitation of active PAI-1 bound to tPA at varying concentrations of the substituted oxadiazolidinedione is used to determine the IC50. Results are analyzed using a logarithmic best-fit equation. The assay sensitivity is 5 ng/ml of human PAI-1 as determined from a standard curve ranging from 0–100 ng/ml.

[1] = target: T1, recombinant human plasminogen activator inhibitor-1 (PAI-1) (Homo sapiens, UniProt P05121); experiment: Primary screen for the PAI-1 inhibition (chromogenic tPA activity, Spectrozyme-tPA); type: biochemical; settings: compound at 100 μM
T1 construct: purchased Molecular Innovations, Royal Oak, Mich
T1 sequence (P05121 24-402): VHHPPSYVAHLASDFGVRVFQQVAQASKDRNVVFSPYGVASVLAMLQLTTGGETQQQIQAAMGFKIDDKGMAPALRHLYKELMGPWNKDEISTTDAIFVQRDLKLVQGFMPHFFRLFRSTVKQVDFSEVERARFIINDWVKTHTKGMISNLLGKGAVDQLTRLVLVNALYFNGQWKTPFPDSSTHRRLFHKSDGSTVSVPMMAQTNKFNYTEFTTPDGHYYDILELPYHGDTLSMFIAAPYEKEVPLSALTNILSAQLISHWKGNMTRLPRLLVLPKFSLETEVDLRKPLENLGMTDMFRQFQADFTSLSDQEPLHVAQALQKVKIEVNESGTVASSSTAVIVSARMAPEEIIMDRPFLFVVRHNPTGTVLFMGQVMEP
Experimental: Test compounds are dissolved in DMSO at a final concentration of 10 mM, then diluted 100× in physiologic buffer. The inhibitory assay is initiated by the addition of the substituted oxadiazolidinedione (1–100 μM final concentration, maximun DMSO concentration of 0.2%) in a pH 6.6 buffer containing 140 nM recombinant human plasminogen activator inhibitor-1 (PAI-1; Molecular Innovations, Royal Oak, Mich.). Following a 1 hour incubation at room temperature, 70 nM of recombinant human tissue plasminogen activator (tPA) is added, and the combination of the substituted oxadiazolidinedione, PAI-1 and tPA is incubated for an additional 30 minutes. Following the second incubation, Spectrozyme-tPA (American Diagnostica, Greenwich, Conn.), a chromogenic substrate for tPA, is added and absorbance read at 405 nm at 0 and 60 minutes. Relative PAI-1 inhibition is equal to the residual tPA activity in the presence of the test compound and PAI-1. Control treatments include the complete inhibition of tPA by PAI-1 at the molar ratio employed (2:1), and the absence of any effect of the substituted oxadiazolidinedione on tPA alone.

human PAI-1, sequence (P05121 24-402): as above

| Compound | IC50 (human PAI-1) | inhibition at 100 µM [1] |
| --- | --- | --- |
| CC(C)(C)c1ccc(COc2ccc3c(c2)c(Cn2oc(=O)[nH]c2=O)cn3Cc2ccccc2)cc1 [Compound 1, 2-({1-benzyl-5-[(4-tert-butylbenzyl)oxy]-1H-indol-3-yl}methyl)-1,2,4-oxadiazolidine-3,5-dione] | 13.8 µM | 96% |
| O=c1[nH]c(=O)n(Cc2cn(Cc3ccccc3)c3ccc(OCc4cccc(Cl)c4)cc23)o1 [Compound 9, 2-({1-benzyl-5-[(3-chlorobenzyl)oxy]-1H-indol-3-yl}methyl)-1,2,4-oxadiazolidine-3,5-dione] | 26.5 µM | 92% |
| O=c1[nH]c(=O)n(Cc2cn(Cc3ccccc3)c3ccc(OCc4cccc(C(F)(F)F)c4)cc23)o1 [Compound 10, 2-[(1-benzyl-5-{[3-(trifluoromethyl)benzyl]oxy}-1H-indol-3-yl)methyl]-1,2,4-oxadiazolidine-3,5-dione] | 9.36 µM | 92% |
| Cc1cccc(COc2cccc(Cn3oc(=O)[nH]c3=O)c2OCc2cccc(C)c2)c1 [Compound 82, 2-{2,3-bis[(3-methylbenzyl)oxy]benzyl}-1,2,4-oxadiazolidine-3,5-dione] | – | 80% |
| O=c1[nH]c(=O)n(Cc2cccc(OCc3cccc(Cl)c3)c2OCc2cccc(Cl)c2)o1 [Compound 83, 2-{2,3-bis[(3-chlorobenzyl)oxy]benzyl}-1,2,4-oxadiazolidine-3,5-dione] | – | 95% |
| O=c1[nH]c(=O)n(Cc2cccc(OCc3cccc(Br)c3)c2OCc2cccc(Br)c2)o1 [Compound 84, 2-{2,3-bis[(3-bromobenzyl)oxy]benzyl}-1,2,4-oxadiazolidine-3,5-dione] | – | 95% |
| O=c1[nH]c(=O)n(Cc2cccc(OCc3ccccc3Br)c2OCc2ccccc2Br)o1 [Compound 85, 2-{2,3-bis[(2-bromobenzyl)oxy]benzyl}-1,2,4-oxadiazolidine-3,5-dione] | – | 93% |

More lines, now with the values ahead:

| IC50 (human PAI-1) | inhibition at 100 µM [1] | Compound |
| --- | --- | --- |
| – | 94% | O=c1[nH]c(=O)n(Cc2ccc(OCc3ccc(C(F)(F)F)cc3)c(OCc3ccc(C(F)(F)F)cc3)c2)o1 [Compound 86, 2-(3,4-bis{[4-(trifluoromethyl)benzyl]oxy}benzyl)-1,2,4-oxadiazolidine-3,5-dione] |
| – | 92% | Cc1cccc(COc2ccc(Cn3oc(=O)[nH]c3=O)cc2OCc2cccc(C)c2)c1 [Compound 87, 2-{3,4-bis[(3-methylbenzyl)oxy]benzyl}-1,2,4-oxadiazolidine-3,5-dione] |
| – | 91% | O=c1[nH]c(=O)n(Cc2ccc(OCc3cccc(Cl)c3)c(OCc3cccc(Cl)c3)c2)o1 [Compound 88, 2-{3,4-bis[(3-chlorobenzyl)oxy]benzyl}-1,2,4-oxadiazolidine-3,5-dione] |
| – | 88% | O=c1[nH]c(=O)n(Cc2ccc(OCc3cccc(Br)c3)c(OCc3cccc(Br)c3)c2)o1 [Compound 89, 2-{3,4-bis[(3-bromobenzyl)oxy]benzyl}-1,2,4-oxadiazolidine-3,5-dione] |
| – | 94% | O=c1[nH]c(=O)n(Cc2ccc(OCc3ccccc3Br)c(OCc3ccccc3Br)c2)o1 [Compound 90, 2-{3,4-bis[(2-bromobenzyl)oxy]benzyl}-1,2,4-oxadiazolidine-3,5-dione] |
